Results from US20170105999A1, “METHOD FOR TREATING DRUG RESISTANT CANCER” (NATIONAL YANG MING UNIVERSITY, priority 2014, published 2017).

Legend:
NSCLC cell lines = tested on: NSCLC cell lines
Method: (§1) Cells were plated in 96-well plates at a density of 2000 cells per well in triplicate. The cells were treated on the third day (to ensure proper plating efficiency and vitality) to indicated agents for 48 hrs. […] Cytotoxicity was assessed using the sulforhodamine B (SRB) assay (23). Briefly, the medium was discarded, and the adherent cells were fixed by 100 μl of cold 10% trichioroacetic acid (w/v) in each well for 1 h at 4° C. After fixation, cells were stained with 100 μl/well of 0.4% (w/v, in 1% acetic acid) SRB solution for 30 min at room temperature, and then washed 5 times with 1% acetic acid. After air-drying, 100 μl of 10 mM Tris base was added to each well and the absorbance was read at 530 nm. Cytotoxicity is expressed as the percent of cells in drug treated wells relative to number of cells in the solvent only control (set to 100%). Each experiment was performed independently at least 2 times in triplicate and cytotoxicity is given as means ±SD.
(§2) A549, A549-ON, CL97, CL141, HCC827, and H441 were lung adenocarcinoma cell lines. CL152, H2170, and H226 were squamous cell carcinoma cell lines. Cell viability was determined by SRB assay. […] To determine whether side population (SP) cells, which represent a cell population with CSC characteristics, exist in NSCLC cell lines, we stained the cells with the fluorescent dye, Hoechst 33342, and analyzed the cells with flow cytometry.

CL141 spheres = assay: Cytotoxicity at sphere cells, Trypan Blue Exclusion method; assay type: cell-based; details: read-out: IC50 for prochlorperazine metabolites
CL141 [1] = assay: Cytotoxicity, sulforhodamine B (SRB) assay; assay type: cell-based; details: read-out: IC50 for prochlorperazine metabolites, CL141 parental cells
Method: as §1, §2

CL152 = assay: Cytotoxicity, sulforhodamine B (SRB) assay; assay type: cell-based; details: read-out: IC50 for prochlorperazine metabolites, CL152 parental cells
Method: as §1, §2

CL152 spheres = assay: Cytotoxicity at sphere cells, Trypan Blue Exclusion method; assay type: cell-based; details: read-out: IC50 for prochlorperazine metabolites
CL141 [2] = assay: Clonogenic assay; assay type: cell-based; details: CL141; approximately 1,000 cells seeded, 14 days
Text: […] […] After the treatments, cells were washed with PBS, and the colonies were fixed with fix solution (methanol: acetic acid=3:1) and stained with 0.5% crystal violet in methanol. After removing the crystal violet carefully and rinse with tap water, the colonies were counted manually.

[3] = tested on: NCI-H441 cells expressing firefly luciferase; assay: NCI-H441 firefly luciferase tail vein tumor model, drug combination test; assay type: in vivo, mice; details: cisplatin 1 mg/kg + pemetrexed 1 mg/kg
Method: In the first drug combination test, NCI-H441 cells expressing firefly luciferase (6×10^5 cells/injection) were injected into NOD/SCID mice (4-6 week of age) via the lateral tail vein for tumor establishment. […] Tumor burden from different groups were recorded by caliper. The change in tumor size was expressed as in fold change and plotted over time. Subsequently, we performed another set of drug combination test. […] For lung adenocarcinoma, the standard drug combination is pemetrexed and cisplatin whereas are used gemcitabine and cisplatin for lung squamous carcinoma. […] CL97 cancer cells (1.5×10^6 cells per injection) were injected subcutaneously into NOD/SCID mice to establish in viva tumor model.
In the drug combination test ([…]), NCI-H441 cells expressing firefly luciferase ([…] cells/injection) were injected into NOD/SCID mice (4-6 week of age) via the lateral tail vein for tumor establishment.

A549 cells = assay: Senescence, β-galactosidase (SA-β-Gal) activity; assay type: cell-based; details: A549, 24 hours; 1 μM prochlorperazine, 50 μM resveratrol as positive control
Text: EMT also plays a critical role in the regulation of cancer sternness. EMT is characterized by enhanced cell migration and invasion.

What does the source list for `Clc1ccc2c(c1)N(CCCN1CCNCC1)c1ccccc1S2` [N-desmethyl prochlorperazine]?
cytotoxic effect in NSCLC cell lines compared with other metabolites (NSCLC cell lines): better cytotoxic effect than other tested metabolites; IC50 (CL141 spheres): < 5 µM; IC50 (CL141 [1]): 5 to 10 µM; IC50 (CL152): ~10 µM; IC50 (CL152 spheres): < 5 µM

For `CC1(C)CCCN1CCCN1c2ccccc2Sc2ccc(Cl)cc21` [NSC 14948], which “Clonogenic assay for prochlorperazine analogs” value (CL141 [2]) is on record?
Its value is 5-10 μM.

How did the “Clonogenic assay for prochlorperazine analogs” value (CL141 [2]) turn out when `CCc1ccc2c(c1)N(CCCN(CCCl)CCCl)c1ccccc1S2` [NSC 166184] was run?
Its value is 1-2.5 μM.

`CCN(CC)CCCN1c2ccccc2Sc2ccc(Cl)cc21` [NSC 169470] was tested. Which “Clonogenic assay for prochlorperazine analogs” value (CL141 [2]) did it give?
The value was 5-10 μM.

Which “Clonogenic assay for prochlorperazine analogs” value (CL141 [2]) does the source give for `CN(C)c1ccc(-c2c3ccccc3nc3ccc(Cl)cc23)cc1` [NSC 406619] here?
The value was 2.5-5 μM.

With `C[N+]1([O-])CCN(CCCN2c3ccccc3[S+]([O-])c3ccc(Cl)cc32)CC1` (stereo not shown) [Prochlorperazine sulfoxide 4′-N-oxide] as the compound, how does the IC50 (CL141 spheres) read?
The IC50 was greater than 10 µM.

And the IC50 (CL141 [1])?
The IC50 was greater than 20 µM.

What about the IC50 (CL152) of the same compound?
The IC50 was greater than 20 µM.

And the IC50 (CL152 spheres)?
The IC50 was greater than 10 µM.

For `CN1CCN(CCCN2c3ccccc3[S+]([O-])c3ccc(Cl)cc32)CC1` (stereo not shown) [Prochlorperazine sulfoxide], which IC50 (CL141 spheres) is on record?
Its IC50 is 5 to 10 µM.

And the IC50 (CL141 [1])?
The IC50 was greater than 20 µM.

What about the IC50 (CL152) of the same compound?
The IC50 was greater than 20 µM.

What about the IC50 (CL152 spheres) of the same compound?
Its IC50 is greater than 10 µM.

How did the “inhibitory effect on tumor growth, cisplatin in combination with pemetrexed vs pemetrexed alone” value [3] turn out when `N.N.[Cl][Pt][Cl]` [cisplatin] was run?
The value was “not significantly different”.

How did the “β-galactosidase activity (senescence)” value (A549 cells) turn out when `Oc1ccc(C=Cc2cc(O)cc(O)c2)cc1` [resveratrol] was run?
The value was “increased β-galactosidase activity”.
